Tested on: MCF-7 cells
Assay: MTT assay for antiproliferation, MCF-7 cells
Format: cell-based
Settings: Homo sapiens, MCF7, 24 h, read-out: percentage of inhibition
Procedure: Cell Lines and Culture. MCF-7, T-47D, and H184B5F5/M10 cells were cultured with 5% CO2 atmosphere at 37° C.; MDA-MB-231 cells were cultured without CO2 at 37° C. The MCF-7 cells were cultured in MEM containing 10% heat-inactivated FBS, 100 units/mL penicillin, 100 μg/mL streptomycin, and 1 mM sodium pyruvate. The T-47D cells were maintained in RPMI-1640 medium containing 10% heat inactivated FBS, 100 units/mL penicillin, and 100 μg/mL streptomycin. […]
Assay for Antiproliferation. To determine the antiproliferative effect, MCF-7, T-47D, MDA-MB-231, or H184B5F5/M10 cells were assessed using the MTT assay as previously reported (Ho, C. Y.; Kim, C. F.; Leung, K. N.; Fung, K. P.; Tse, T. F.; Chan, H.; Lau, C. B. Differential anti-tumor activity of Coriolus versicolor (Yunzhi) extract through p53- and/or Bcl-2-dependent apoptotic pathway in human breast cancer cells. Cancer Biol. Ther. 2005, 4, e11-e17). […] The absorbance at 570 nm was measured, and the viability of cells was calculated using the following equation: relative cell number (%)=(average absorbance of treated wells)×100/(average absorbance of blank vehicle wells).

Compound: COC1=C(C)CC2(CC1)C(C)=CC(=O)C=C2C [compound 3, coixspiroenone]
- inhibition at 50 µM: 19.2%
